Laboratory results published in article PMC8006202, “Influence of YES1 Kinase and Tyrosine Phosphorylation on the Activity of OCT1” (Frontiers in Pharmacology, 2021).
pIC50, pKd: −log10 of the molar value. Read-outs that look alike come from different tables or passages of the source.

Key:
OCT2 (hOCT2) [1] = target: T1, OCT2 (hOCT2) (Homo sapiens, UniProt O15244); test: OCT2 transport inhibition; format: cell-based; conditions: models overexpressing hOCT2, Supplementary Figure S4D
T1 construct: expressed in transfected cells; host or cells: overexpressing cell model
T1 sequence (O15244 1-555): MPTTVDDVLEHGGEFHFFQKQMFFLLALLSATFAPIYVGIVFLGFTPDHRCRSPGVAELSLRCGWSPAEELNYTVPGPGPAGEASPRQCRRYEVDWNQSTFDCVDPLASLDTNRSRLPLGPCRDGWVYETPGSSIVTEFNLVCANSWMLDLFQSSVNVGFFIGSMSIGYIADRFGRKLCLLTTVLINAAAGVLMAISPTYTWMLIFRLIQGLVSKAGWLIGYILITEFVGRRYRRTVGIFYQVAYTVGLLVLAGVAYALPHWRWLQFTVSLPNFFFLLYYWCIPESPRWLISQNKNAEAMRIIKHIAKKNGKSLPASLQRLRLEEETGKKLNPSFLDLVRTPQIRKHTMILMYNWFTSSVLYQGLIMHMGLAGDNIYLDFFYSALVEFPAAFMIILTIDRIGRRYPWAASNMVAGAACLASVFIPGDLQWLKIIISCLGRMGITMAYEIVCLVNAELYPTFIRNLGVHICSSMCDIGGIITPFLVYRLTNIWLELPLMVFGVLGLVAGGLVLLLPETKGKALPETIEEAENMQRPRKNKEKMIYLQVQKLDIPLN
Method: (§1) Uptake assays were performed with radiolabeled TEA (2 µM) or metformin (5 µM) as described previously ([Sprowl et al., 2013]; [Pabla et al., 2015]) in the presence or absence of TKIs. The results were normalized to uptake values in cells stably transfected with an empty vector treated with vehicle alone (Supplementary Figure S1). Prior to cellular accumulation experiments, cells were grown to 90% confluence on poly-lysine coated multi-well plates. For uptake studies, cells were rinsed with warm PBS and incubated in the presence of a vehicle or inhibitor, prepared in serum and phenol red-free DMEM media for 15 min. Subsequently, media was removed followed by the addition of radiolabeled TEA and metformin along with inhibitor, and cellular uptake was measured after a 15-min co-incubation period. Total radioactivity originating from TEA and metformin was determined using liquid scintillation counting after lysing the cells with 1 N NaOH, a neutralizing step with 2 M HCl. A Pierce protein assay (Thermo Fisher Scientific, Waltham, MA) was used to normalize radioactivity readings to account for variation in cell number between samples.

mouse OCT1 (mOCT1) = target: T2, mouse OCT1 (mOCT1) (Mus musculus, UniProt O08966); test: Cellular uptake of [14C] TEA in HEK293 cells overexpressing mOCT1, with or without inhibitor; format: cell-based; conditions: models overexpressing mOCT1, Supplementary Figure S4C
T2 construct: expressed in transfected cells
T2 sequence (O08966 1-556): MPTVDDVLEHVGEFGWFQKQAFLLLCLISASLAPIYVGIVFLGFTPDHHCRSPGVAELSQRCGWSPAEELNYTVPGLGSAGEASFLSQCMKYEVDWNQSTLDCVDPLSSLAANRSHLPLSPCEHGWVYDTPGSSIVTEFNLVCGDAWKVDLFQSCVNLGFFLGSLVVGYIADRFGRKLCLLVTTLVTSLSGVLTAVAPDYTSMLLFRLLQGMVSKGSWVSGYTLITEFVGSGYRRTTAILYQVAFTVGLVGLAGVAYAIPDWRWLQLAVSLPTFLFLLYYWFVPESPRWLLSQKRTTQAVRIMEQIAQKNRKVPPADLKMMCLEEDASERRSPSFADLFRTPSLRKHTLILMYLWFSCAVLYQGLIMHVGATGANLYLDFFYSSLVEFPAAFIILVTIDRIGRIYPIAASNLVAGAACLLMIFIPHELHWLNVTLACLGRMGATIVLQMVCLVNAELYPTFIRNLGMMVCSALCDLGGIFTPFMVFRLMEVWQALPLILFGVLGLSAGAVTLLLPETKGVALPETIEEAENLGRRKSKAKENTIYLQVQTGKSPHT
Method: (§2) Human embryonic kidney (HEK293) cells were obtained from the American Type Culture Collection (ATCC, Manassas, VA). HEK293 cells stably transfected with mouse OCT1 (mOCT1) or human OCT1 (hOCT1) were cultured in Dulbecco’s Modified Eagle Media (DMEM) media supplemented with 10% fetal bovine serum (FBS) and grown at 37°C in a humidified incubator containing 5% CO2. Radiolabeled [^14C] TEA and [^14C] metformin were obtained from American Radiochemicals (St. Louis, MO). Cellular uptake assays were performed 48 h following transient transfection by Lipofectamine 3000 Transfection Reagent (Thermo Fisher Scientific, Waltham, MA). ON-TARGETplus Human YES1 siRNA was obtained from Dharmacon (Lafayette, CO). RNA extraction kits were obtained from Omega Bio-tek (Norcross, GA).
as §1

human OCT1 (hOCT1) = target: T3, human OCT1 (hOCT1) (Homo sapiens, UniProt O15245); test: Cellular uptake of [14C] TEA or [14C] metformin in HEK293 cells overexpressing hOCT1, with or without inhibitor; format: cell-based; conditions: for OCT1 function (TEA transport) in presence of TKI: HEK293-hOCT1, TKI 10 µM, Figure 2D
T3 construct: expressed in transfected cells
T3 sequence (O15245 1-554): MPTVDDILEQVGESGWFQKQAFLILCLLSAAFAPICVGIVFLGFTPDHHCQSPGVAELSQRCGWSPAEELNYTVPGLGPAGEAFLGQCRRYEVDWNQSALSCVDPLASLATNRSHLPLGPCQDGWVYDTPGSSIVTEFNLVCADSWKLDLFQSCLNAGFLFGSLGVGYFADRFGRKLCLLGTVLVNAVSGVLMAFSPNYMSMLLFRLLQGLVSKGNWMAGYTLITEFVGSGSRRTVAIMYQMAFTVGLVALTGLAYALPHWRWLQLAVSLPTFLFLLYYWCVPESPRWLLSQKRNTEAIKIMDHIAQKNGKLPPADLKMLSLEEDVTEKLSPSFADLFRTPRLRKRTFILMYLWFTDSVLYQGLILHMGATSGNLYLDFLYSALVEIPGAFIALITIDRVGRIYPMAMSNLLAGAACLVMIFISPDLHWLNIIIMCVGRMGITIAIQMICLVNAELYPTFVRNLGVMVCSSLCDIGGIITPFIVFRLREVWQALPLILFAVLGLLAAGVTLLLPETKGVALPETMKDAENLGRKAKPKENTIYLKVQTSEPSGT
Method: as §2
as §1, with “The” for “Uptake assays were performed with radiolabeled TEA (2 µM) or metformin (5 µM) as described previously ([Sprowl et al., 2013]; [Pabla et al., 2015]) in the presence or absence of TKIs. The”

OCT2 (hOCT2) [2] = target: T1, OCT2 (hOCT2); conditions: Yes/No; TKIs previously found to inhibit OCT2; ref Sprowl et al., 2016; cited from earlier work
OCT1 = test: Dose-response OCT1 uptake inhibition, summarised across mOCT1 and hOCT1 models and test substrates; format: cell-based, human and mouse; conditions: for OCT1 inhibition: Yes/No; for OCT1 function in dose-response experiments: species-independent, regardless of test substrate
Method: as §2, §1

OCT1 (mouse and human) = test: as above; format: cell-based; conditions: mouse and human, probe [14C] TEA (2 µM) or [14C] metformin (5 µM); range over mOCT1/hOCT1 models and test substrates
Method: as §2, §1

OCT3 = target: T4, OCT3 (Homo sapiens, UniProt O75751); test: OCT3 transport inhibition by TKIs (Supplementary Figure S2); format: cell-based
T4 sequence (O75751 1-556): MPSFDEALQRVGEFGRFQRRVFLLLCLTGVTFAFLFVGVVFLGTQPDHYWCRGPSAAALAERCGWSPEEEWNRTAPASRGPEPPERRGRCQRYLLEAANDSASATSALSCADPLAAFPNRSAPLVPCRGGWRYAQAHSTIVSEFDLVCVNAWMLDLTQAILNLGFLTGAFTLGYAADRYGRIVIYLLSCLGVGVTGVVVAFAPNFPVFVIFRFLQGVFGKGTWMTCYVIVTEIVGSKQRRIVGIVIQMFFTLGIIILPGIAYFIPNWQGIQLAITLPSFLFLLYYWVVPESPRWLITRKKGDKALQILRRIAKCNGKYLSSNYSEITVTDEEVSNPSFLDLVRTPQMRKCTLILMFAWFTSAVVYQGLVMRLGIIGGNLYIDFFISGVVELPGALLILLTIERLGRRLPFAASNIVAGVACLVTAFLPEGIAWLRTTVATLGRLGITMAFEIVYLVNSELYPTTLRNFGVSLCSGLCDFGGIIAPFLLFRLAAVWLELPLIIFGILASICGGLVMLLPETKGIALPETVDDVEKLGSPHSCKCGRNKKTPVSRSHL
Method: as §1

hepatic OCT1 = target: T5, hepatic OCT1 (Mus musculus, UniProt O08966); conditions: OCT1/2-deficient vs wild-type mice, [14C] TEA 0.2 mg/kg i.v.
T5 sequence (O08966 1-556): T2 sequence (O08966 1-556)
Method: Mice were accommodated in a temperature-, and light-controlled environment with access to water and food.
TEA (0.2 mg/kg) via the caudal vein. Concentrations of total TEA-derived radioactivity in plasma and homogenized liver samples were measured by liquid scintillation counting.

YES1 = conditions: read-out: YES1 Kd; ref Klaeger et al., 2017; KINOMEscan data—HMS LINCS Project, 2020; cited from earlier work

| SMILES | OCT2 inhibition (OCT2 (hOCT2) [2]) | OCT1 inhibition (OCT1) | OCT1 function in dose-response experiments (OCT1) | IC50 at 15 min (OCT1 (mouse and human)) [µM] | OCT1 function (TEA transport) in presence of TKI (human OCT1 (hOCT1)) | OCT3 function in presence of TKI (OCT3) | also measured |
| --- | --- | --- | --- | --- | --- | --- | --- |
| Cc1cc2cc(C(=O)c3cnn(-c4cnc(Oc5c(F)cccc5F)cc4C)c3N)[nH]c2cc1NS(C)(=O)=O [CH6953755] |  |  |  |  |  |  | inhibition of hOCT2-mediated transport (OCT2 (hOCT2) [1]): also observed; inhibition of mOCT1-mediated transport (mouse OCT1 (mOCT1)): also observed; pIC50 (human OCT1 (hOCT1); HEK293-hOCT1, [14C] TEA 2 µM, 15 min pre-incubation + 15 min co-incubation, read-out: IC50, hOCT1-mediated transport of TEA): 5.56; pIC50 (human OCT1 (hOCT1); HEK293-hOCT1, [14C] metformin 5 µM, read-out: IC50, hOCT1-mediated transport of metformin): 5.64 |
| CCc1nc(C(N)=O)c(Nc2ccc(N3CCC(N4CCN(C)CC4)CC3)c(OC)c2)nc1NC1CCOCC1 [Gilteritinib, gilteritinib] | Yes | Yes | potently inhibited | 0.01 to 0.02 | inhibit OCT1 function | no influence |  |
| C=CC(=O)N1CCC[C@@H](n2nc(-c3ccc(Oc4ccccc4)cc3)c3c(N)ncnc32)C1 [Ibrutinib, ibrutinib] | Yes | Yes | potently inhibited | 0.89 to 1.18 | inhibit OCT1 function | no influence |  |
| CS(=O)(=O)CCNCc1ccc(-c2ccc3ncnc(Nc4ccc(OCc5cccc(F)c5)c(Cl)c4)c3c2)o1 [Lapatinib, lapatinib] | No | No |  |  | not |  |  |
| CC[N+](CC)(CC)CC [TEA, tetraethylammonium] |  |  |  |  |  |  | hepatic uptake of TEA (liver-to-plasma concentration ratio) in OCT1/2-deficient mice (hepatic OCT1): dramatically reduced |
| COc1cc2c(Nc3ccc(Br)cc3F)ncnc2cc1OCC1CCN(C)CC1 [Vandetanib, vandetanib] | Yes | Yes | potently inhibited | 1.35 to 9.05 | inhibit OCT1 function |  | pKd (YES1): 6.92 |
| COc1cc(Nc2c(C#N)cnc3cc(OCCCN4CCN(C)CC4)c(OC)cc23)c(Cl)cc1Cl [bosutinib] |  |  |  |  | inhibit OCT1 function | no influence |  |
| CCN(CC)CCNC(=O)c1c(C)[nH]c(/C=C2\C(=O)Nc3ccc(F)cc32)c1C [sunitinib] |  |  |  |  | inhibit OCT1 function | potently inhibiting |  |
